Measurements as given in patent US20150337013A1, “NOVEL ANTIBACTERIAL AGENTS FOR THE TREATMENT OF GRAM POSITIVE INFECTIONS” (priority 2008, published 2015).
“And” between values parts separate entries of the source, which are not always exact repeats. Equal values may be shown once. Read-outs that look alike come from different tables or passages of the source.

Assays:
[1] = test system: Enterococcus faecalis EFS.201 (ATCC 49452); type: cell-based
How it was run: (§1)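 CLSI M7-A7 broth microdilution, modified: MHB + 50 mg/L Ca, 5×10^5 bacteria/well, 2-fold dilutions, DMSO ≤1%, 18-20 h, 37° C, 200 rpm. Growth = visible turbidity or OD600 ≥0.1; MIC = lowest conc. without visible turbidity, μg/mL.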

[2] = test system: Enterococcus faecalis EFS.312, Daptomycin resistant mutant (EFA); type: cell-based; details: MHBc with 50 mg/L calcium, 18-20 hours at 37° C.
How it was run: as §1

[3] = test system: Enterococcus faecium EFM.14 (ATCC 6569); type: cell-based
How it was run: as §1

[4] = test system: Enterococcus faecium EFM.384, Daptomycin resistant mutant (14-A); type: cell-based; details: MHBc with 50 mg/L calcium, 18-20 hours at 37° C.
How it was run: as §1

[5] = test system: Staphylococcus aureus SAU.278, Daptomycin resistant mutant (D10); type: cell-based; details: MHBc with 50 mg/L calcium, 18-20 hours at 37° C.
How it was run: as §1

[6] = test system: Staphylococcus aureus SAU.399 (ATCC 43300), Methicillin and Oxacillin Resistant; type: cell-based
How it was run: as §1

[7] = test system: Staphylococcus aureus SAU.42 (ATCC 29213); type: cell-based
How it was run: as §1

[8] = MHBc with 50 mg/L calcium, 18-20 hours at 37° C.

| Compound | Efs201 MIC [1, 8] [µg/mL] | Efs312 MIC [2] | Efm14 MIC [3, 8] | Efm384 MIC [4] [µg/mL] | Sa278 MIC [5] [µg/mL] | Sa399 MIC [6, 8] [µg/mL] | Sa42 MIC [7, 8] [µg/mL] | C. diff MIC90 (Clostridium difficile) [µg/mL] | Efs201 MIC ([1]; ATCC 49452) [µg/mL] | Efm14 MIC ([3]; ATCC 6569) [µg/mL] | Sa399 MIC ([6]; ATCC 43300) [µg/mL] | Sa42 MIC ([7]; ATCC 29213) [µg/mL] |
| --- | --- | --- | --- | --- | --- | --- | --- | --- | --- | --- | --- | --- |
| CCCCCOc1ccc(/C=C/C(=O)N[C@@H](Cc2c[nH]c3ccccc23)C(=O)N[C@H](CC(N)=O)C(=O)N[C@@H](CC(=O)O)C(=O)N[C@@H]2C(=O)NCC(=O)N[C@@H](CCCN)C(=O)N[C@@H](CC(=O)O)C(=O)N[C@H](C)C(=O)N[C@@H](CC(=O)O)C(=O)NCC(=O)N[C@H](CO)C(=O)N[C@@H]([C@H](C)CC(=O)O)C(=O)N[C@@H](CC(=O)c3ccccc3N)C(=O)O[C@@H]2C)cc1 [Compound 41] | 4 | >32 µg/mL | 8 µg/mL | >32 | 2 | 2 | 4 | 4 | – | – | – | – |
| CCCCCCCc1csc(C(=O)N[C@@H](Cc2c[nH]c3ccccc23)C(=O)N[C@H](CC(N)=O)C(=O)N[C@@H](CC(=O)O)C(=O)N[C@@H]2C(=O)NCC(=O)N[C@@H](CCCN)C(=O)N[C@@H](CC(=O)O)C(=O)N[C@H](C)C(=O)N[C@@H](CC(=O)O)C(=O)NCC(=O)N[C@H](CO)C(=O)N[C@@H]([C@H](C)CC(=O)O)C(=O)N[C@@H](CC(=O)c3ccccc3N)C(=O)O[C@@H]2C)c1 [Compound 43, N-(4-heptylthiophene-2-carbonyl)-L-tryptophyl-D-asparaginyl-L-α-aspartyl-L-threonylglycyl-L-ornithyl-L-α-aspartyl-D-alanyl-L-α-aspartylglycyl-D-seryl-(3R)-3-methyl-L-α-glutamyl-(αS)-α,2-diamino-γ-oxobenzenebutanoic acid (13→4)-lactone] | – | 32 µg/mL | – | 16 | 1 | – | – | 2 | 1 | 1 | 0.5 | 0.125 |
| CCCCc1ccc(CC(=O)N[C@@H](Cc2c[nH]c3ccccc23)C(=O)N[C@H](CC(N)=O)C(=O)N[C@@H](CC(=O)O)C(=O)N[C@@H]2C(=O)NCC(=O)N[C@@H](CCCN)C(=O)N[C@@H](CC(=O)O)C(=O)N[C@H](C)C(=O)N[C@@H](CC(=O)O)C(=O)NCC(=O)N[C@H](CO)C(=O)N[C@@H]([C@H](C)CC(=O)O)C(=O)N[C@@H](CC(=O)c3ccccc3N)C(=O)O[C@@H]2C)cc1 [Compound 44] | – | >32 µg/mL | – | >32 | 4 | – | – | 8.00 | 8 | 16 | 4 | 4 |
| CCCCCCCc1ccc(NC(=O)N[C@@H](Cc2c[nH]c3ccccc23)C(=O)N[C@H](CC(N)=O)C(=O)N[C@@H](CC(=O)O)C(=O)N[C@@H]2C(=O)NCC(=O)N[C@@H](CCCN)C(=O)N[C@@H](CC(=O)O)C(=O)N[C@H](C)C(=O)N[C@@H](CC(=O)O)C(=O)NCC(=O)N[C@H](CO)C(=O)N[C@@H]([C@H](C)CC(=O)O)C(=O)N[C@@H](CC(=O)c3ccccc3N)C(=O)O[C@@H]2C)cc1 [Compound 51] | – | 8 µg/mL | – | 4 | 1 | – | – | 0.5 | 0.25 | 0.5 | 0.125 | 0.125 |
| C[C@H](CC(=O)O)[C@@H]1NC(=O)[C@@H](CO)NC(=O)CNC(=O)[C@H](CC(=O)O)NC(=O)[C@@H](C)NC(=O)[C@H](CC(=O)O)NC(=O)[C@H](CCCN)NC(=O)CNC(=O)[C@@H](NC(=O)[C@H](CC(=O)O)NC(=O)[C@@H](CC(N)=O)NC(=O)[C@H](Cc2c[nH]c3ccccc23)NC(=O)c2ccc(-c3ccc(-c4ccccc4)cc3)s2)[C@@H](C)OC(=O)[C@H](CC(=O)c2ccccc2N)NC1=O [Compound 52, N-[5-(biphenyl-4-yl)thiophene-2-carbonyl]-L-tryptophyl-D-asparaginyl-L-α-aspartyl-L-threonylglycyl-L-ornithyl-L-α-aspartyl-D-alanyl-L-α-aspartylglycyl-D-seryl-(3R)-3-methyl-L-α-glutamyl-(αS)-α,2-diamino-γ-oxobenzenebutanoic acid (13→4)-lactone] | 0.5 | 8 µg/mL and 16 µg/mL | 1 µg/mL and 0.5 µg/mL | 4 | 0.5 | 0.25 | 0.25 | 2 | – | – | – | – |
| CCCOc1ccc(-c2ccc(C(=O)N[C@@H](Cc3c[nH]c4ccccc34)C(=O)N[C@H](CC(N)=O)C(=O)N[C@@H](CC(=O)O)C(=O)N[C@@H]3C(=O)NCC(=O)N[C@@H](CCCN)C(=O)N[C@@H](CC(=O)O)C(=O)N[C@H](C)C(=O)N[C@@H](CC(=O)O)C(=O)NCC(=O)N[C@H](CO)C(=O)N[C@@H]([C@H](C)CC(=O)O)C(=O)N[C@@H](CC(=O)c4ccccc4N)C(=O)O[C@@H]3C)cc2)cc1 [Compound 59] | – | >32 µg/mL | – | 32 | 4 | – | – | 4 | 4 | 4 | 0.5 | 0.5 |
| CCCCCCCOc1ccc(-c2ccc(C(=O)N[C@@H](Cc3c[nH]c4ccccc34)C(=O)N[C@H](CC(N)=O)C(=O)N[C@@H](CC(=O)O)C(=O)N[C@@H]3C(=O)NCC(=O)N[C@@H](CCCN)C(=O)N[C@@H](CC(=O)O)C(=O)N[C@H](C)C(=O)N[C@@H](CC(=O)O)C(=O)NCC(=O)N[C@H](CO)C(=O)N[C@@H]([C@H](C)CC(=O)O)C(=O)N[C@@H](CC(=O)c4ccccc4N)C(=O)O[C@@H]3C)cc2)cc1 [Compound 63] | 0.5 | 4 µg/mL | 1 µg/mL | 1 | 0.25 | 0.25 | 0.25 | 2 | – | – | – | – |
| CCCCCCCCOc1ccc(-c2ccc(C(=O)N[C@@H](Cc3c[nH]c4ccccc34)C(=O)N[C@H](CC(N)=O)C(=O)N[C@@H](CC(=O)O)C(=O)N[C@@H]3C(=O)NCC(=O)N[C@@H](CCCN)C(=O)N[C@@H](CC(=O)O)C(=O)N[C@H](C)C(=O)N[C@@H](CC(=O)O)C(=O)NCC(=O)N[C@H](CO)C(=O)N[C@@H]([C@H](C)CC(=O)O)C(=O)N[C@@H](CC(=O)c4ccccc4N)C(=O)O[C@@H]3C)cc2)cc1 [Compound 64] | 0.5 | 16 µg/mL | 1 µg/mL | 4 | 0.5 | 0.25 | 0.125 | 1 | – | – | – | – |
| C[C@H](CC(=O)O)[C@@H]1NC(=O)[C@@H](CO)NC(=O)CNC(=O)[C@H](CC(=O)O)NC(=O)[C@@H](C)NC(=O)[C@H](CC(=O)O)NC(=O)[C@H](CCCN)NC(=O)CNC(=O)[C@@H](NC(=O)[C@H](CC(=O)O)NC(=O)[C@@H](CC(N)=O)NC(=O)[C@H](Cc2c[nH]c3ccccc23)NC(=O)Cc2ccc(-c3ccccc3)cc2)[C@@H](C)OC(=O)[C@H](CC(=O)c2ccccc2N)NC1=O [Compound 66] | >32 | >32 µg/mL | >32 µg/mL | >32 | >32 | 8 | 8 | 8 | – | – | – | – |
